{
  "source": "patent US20030186845A1",
  "about": "“Compositions for preventing urinary calculus” (priority 2000, published 2003)",
  "key": {"male rats [1]": {"system": "male rats", "experiment": "Calculus prevention effect by chelating agents (repeated intravenous administration, 2 weeks)", "type": "in vivo", "settings": "for Calculi / Hyperplasia of vesical transitional epithelium / Urinary occult blood: mixed with R-CHI3-DTPA-Gd 0.33 mmol/kg i.v.; for Calculi / Hyperplasia of vesical transitional epithelium / Effect of inhibiting production of calculi: male rats; for Urinary occult blood: occurrences/total daily inspections for 14 days; for Effect of inhibiting production of calculi: specimens of R-CHI3-DTPA-Gd mixed with chelating agent, summary in words", "description": "To R-CHI3-DTPA-Gd, was added diethylenetriaminepentaacetic acid (DTPA), its calcium complex, or calcium complex of ethylenediaminetetraacetic acid (EDTA). Using them as specimens, toxicity studies by repeated intravenous administration were conducted on male rats for 2 weeks. A group, which is called DTPA-10 group, was administered with a specimen of R-CHI3-DTPA-Gd mixed with DTPA in an amount equivalent to 10 mmol per 500 mmol of the DTPA-Gd portion of the R-CHI3-DTPA-Gd; a group, which is called DTPA-Ca-10 group, was administered with a specimen mixed with calcium complex of DTPA in an amount equivalent to 10 mmol; a group, which is called EDTA-Ca-1 group, was administered with a specimen mixed with calcium complex of EDTA in an amount equivalent 1 mmol; and a group, which is called EDTA-Ca-10 group, was administered with a specimen mixed with calcium complex of EDTA in an amount equivalent to 10 mmol. DTPA and others were mixed with R-CHI3-DTPA-Gd immediately before administration. As control groups, were set up a group that was administered with a physiological saline and a group that was free from a chelating agent (i.e., administered with R-CHI3-DTPA-Gd only). Except the physiological saline-administered group, the dose as R-CHI3-DTPA-Gd was 0.33 mmol/kg.\n(The chelating agent-free group is estimated to include individuals that discharged calculi from their urinary bladders, judging from the hyperplasia of vesical transitional epithelium and the frequency of urinary occult blood.)"}, "male rats [2]": {"system": "male rats", "experiment": "Calculus prevention effect by DTPA (repeated intravenous administration, 2 weeks, two lots)", "type": "in vivo", "settings": "for Urinary occult blood: occurrences/inspections", "description": "Toxicity studies by repeated intravenous administration were conducted on male rats for 2 weeks using, as a specimen, R-CHI3-DTPA-Gd to which DTPA was added. In this test, two lots (hereinafter called lot #1 and lot #2) of R-CHI3-DTPA-Gd were provided, and the following administered groups were set up. […] As control groups, were set up a group that was administered with a physiological saline and a group that was free from a chelating agent (i.e., administered with […] of lot (1) only). Except the physiological saline-administered group, the dose as R-CHI3-DTPA-Gd was 0.33 mmol/kg."}, "[3]": {"settings": "chelating agent 1 mmol per 500 mmol DTPA-Gd portion"}, "[4]": {"settings": "chelating agent 10 mmol per 500 mmol DTPA-Gd portion"}, "[5]": {"settings": "DTPA 1 mmol per 500 mmol DTPA-Gd portion, R-CHI3-DTPA-Gd lot #1, 0.33 mmol/kg i.v."}, "[6]": {"settings": "DTPA 1 mmol per 500 mmol DTPA-Gd portion, R-CHI3-DTPA-Gd lot #2, 0.33 mmol/kg i.v."}, "[7]": {"settings": "DTPA 1.3 mmol per 500 mmol DTPA-Gd portion, R-CHI3-DTPA-Gd lot #2, 0.33 mmol/kg i.v."}, "[8]": {"settings": "DTPA 3 mmol per 500 mmol DTPA-Gd portion, R-CHI3-DTPA-Gd lot #1, 0.33 mmol/kg i.v."}, "[9]": {"settings": "DTPA 10 mmol per 500 mmol DTPA-Gd portion, R-CHI3-DTPA-Gd lot #2, 0.33 mmol/kg i.v."}},
  "data": [
    {"smiles": "O=C([O-])CN(CCN(CC(=O)[O-])CC(=O)O)CC(=O)O.[Ca+2]", "note": "[EDTA-Ca]", "values": [
      {"measurement": "Calculi", "setting": "male rats [1]; [3]", "result": "4/10"},
      {"measurement": "Hyperplasia of vesical transitional epithelium", "setting": "male rats [1]; [3]", "result": "2/10"},
      {"measurement": "Urinary occult blood", "setting": "male rats [1]; [3]", "result": "17/140"},
      {"measurement": "Calculi", "setting": "male rats [1]; [4]", "result": "1/10"},
      {"measurement": "Hyperplasia of vesical transitional epithelium", "setting": "male rats [1]; [4]", "result": "1/10"},
      {"measurement": "Urinary occult blood", "setting": "male rats [1]; [4]", "result": "6/140"},
      {"measurement": "Effect of inhibiting production of calculi", "setting": "male rats [1]", "result": "week effect"}
    ]},
    {"smiles": "O=C(O)CN(CCN(CC(=O)O)CC(=O)O)CCN(CC(=O)O)CC(=O)O", "note": "[DTPA, diethylenetriaminepentaacetic acid]", "values": [
      {"measurement": "Calculi", "setting": "male rats [2]; [5]", "result": "5/10"},
      {"measurement": "Hyperplasia of vesical transitional epithelium", "setting": "male rats [2]; [5]", "result": "7/10"},
      {"measurement": "Urinary occult blood", "setting": "male rats [2]; [5]", "result": "24/140"},
      {"measurement": "Calculi", "setting": "male rats [2]; [6]", "result": "5/10"},
      {"measurement": "Hyperplasia of vesical transitional epithelium", "setting": "male rats [2]; [6]", "result": "6/10"},
      {"measurement": "Urinary occult blood", "setting": "male rats [2]; [6]", "result": "27/140"},
      {"measurement": "Calculi", "setting": "male rats [2]; [7]", "result": "5/10"},
      {"measurement": "Hyperplasia of vesical transitional epithelium", "setting": "male rats [2]; [7]", "result": "7/10"},
      {"measurement": "Urinary occult blood", "setting": "male rats [2]; [7]", "result": "26/140"},
      {"measurement": "Calculi", "setting": "male rats [2]; [8]", "result": "5/10"},
      {"measurement": "Hyperplasia of vesical transitional epithelium", "setting": "male rats [2]; [8]", "result": "5/10"},
      {"measurement": "Urinary occult blood", "setting": "male rats [2]; [8]", "result": "17/140"},
      {"measurement": "Calculi", "setting": "male rats [2]; [9]", "result": "3/10"},
      {"measurement": "Hyperplasia of vesical transitional epithelium", "setting": "male rats [2]; [9]", "result": "4/10"},
      {"measurement": "Urinary occult blood", "setting": "male rats [2]; [9]", "result": "19/140"},
      {"measurement": "Calculi", "setting": "male rats [1]; [4]", "result": "0/10"},
      {"measurement": "Hyperplasia of vesical transitional epithelium", "setting": "male rats [1]; [4]", "result": "0/10"},
      {"measurement": "Urinary occult blood", "setting": "male rats [1]; [4]", "result": "8/140"},
      {"measurement": "Effect of inhibiting production of calculi", "setting": "male rats [1]", "result": "significant effect"}
    ]},
    {"smiles": "O=C([O-])CN(CCN(CCN(CC(=O)[O-])CC(=O)O)CC(=O)O)CC(=O)O.[Ca+2]", "note": "[DTPA-Ca]", "values": [
      {"measurement": "Calculi", "setting": "male rats [1]; [4]", "result": "0/10"},
      {"measurement": "Hyperplasia of vesical transitional epithelium", "setting": "male rats [1]; [4]", "result": "0/10"},
      {"measurement": "Urinary occult blood", "setting": "male rats [1]; [4]", "result": "3/140"},
      {"measurement": "Effect of inhibiting production of calculi", "setting": "male rats [1]", "result": "significant effect"}
    ]}
  ]
}
